Measurements from US11696913B2, “Prolonged ectoparasite-controlling agent for animal” (MITSUI CHEMICALS AGRO, INC., priority 2017, dated 2023).
Read-outs that look alike come from different tables or passages of the source.

How the values were obtained:
Rhipicephalus sanguineus = assay: In vitro contact test with adult hard ticks (Rhipicephalus sanguineus); conditions: read-out: acaricidal activity
In short: (§1)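 Acaricidal activity = % ticks dead or moribund after 48 h contact with acetone-deposited compound on vial walls (e.g., 900 ppm solution → 5 μg/cm^2). Ambient conditions for R. sanguineus, 21° C./85% rel. hum. for other species; heat challenge at 45-50° C. separated climbers from moribund ticks.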

Laodelphax striatellus = assay: Insecticidal testing against small brown planthopper; type: in vivo; conditions: 144 h, concentration 100 ppm, sprayed rice seedlings, after 6 days, read-out: pesticidal rate
In short: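 Acetone solution of compound at a set concentration sprayed onto rice seedlings, air-dried, then exposed to 10 planthoppers (one group). Held at 25° C; survival rate recorded after 6 days.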

Ctenocephalides felis [1] = assay: In vitro contact test with fleas; conditions: read-out: insecticidal activity
In short: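 Activity is the percentage of fleas dead or moribund at 48 h, judged by immobility or uncoordinated movement after tapping. Tubes were coated by evaporating acetone solutions (900 ppm gives 5 μg/cm^2), then held 5-10 adult fleas of both sexes at room temperature and ambient humidity.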

Ctenocephalides felis [2] = assay: Ctenocephalides felis in-vitro feeding test with fleas (CTECFE oral); conditions: 48 hours, read-out: insecticidal feeding activity
In short: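 Scored as percent fleas killed (0–100%) 48 hours after feeding began. Compound, dissolved in DMSO and diluted into citrated cattle blood, was offered via a parafilm membrane to roughly 20 adult male and female C. felis at about 37° C.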

Dermacentor variabilis [3] = assay: In vitro contact test with adult hard ticks (Dermacentor variabilis); conditions: read-out: acaricidal activity
In short: as §1

Dermacentor variabilis [4] = assay: Systemic treatment in-vivo test with American dog tick nymph on rats; conditions: Dermacentor variabilis, ip, intraperitoneal injection, 10 mg/kg
In short: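 Rats dosed intraperitoneally per body weight in glycerol formal (up to 25% NMP for poorly soluble compounds). 30 D. variabilis nymphs released on treatment day and weekly, 30 C. felis fleas 24 h later; live attached engorged ticks counted at 48 h (±4 h), live fleas at 24 h, efficacy versus placebo group.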

Spodoptera litura = assay: Insecticidal testing against common cutworm; type: in vivo; conditions: foliar, 144 h, concentration 100 ppm, cabbage leaf dip, second-stage larvae, after 6 days, read-out: pesticidal rate
Description: Insecticidal Testing Against Common Cutworm (Spodoptera litura)

For CN(C(=O)c1ccc(F)nc1)c1cccc(C(=O)Nc2c(I)cc(C(F)(C(F)(F)F)C(F)(F)F)cc2C(F)(F)F)c1F [Compound 115, 6-fluoro-N-(2-fluoro-3-((2-iodo-4-(perfluoropropan-2-yl)-6-(trifluoromethyl)phenyl)carbamoyl)phenyl)-N-methylnicotinamide], the pest or weed control at 0.04 µg/cm2, 0.04 µg/cm2 (Rhipicephalus sanguineus; dose 0.04 μg/cm^2, 48 h) was 90%, the pest or weed control at 0.2 µg/cm2, 0.2 µg/cm2 (Rhipicephalus sanguineus; dose 0.2 μg/cm^2, 48 h) was 90% and the pest or weed control at 1 µg/cm2, 1 µg/cm2 (Rhipicephalus sanguineus; dose 1 μg/cm^2, 48 h) was 90%. It also gave a pest or weed control at 100 ppm (Laodelphax striatellus) of no less than 70%, a pest or weed control at 0.04 µg/cm2, 0.04 µg/cm2 (Ctenocephalides felis [1]; dose 0.04 μg/cm^2, dead or moribund fleas after 48 h) of 95% and a pest or weed control at 0.2 µg/cm2, 0.2 µg/cm2 (Ctenocephalides felis [1]; dose 0.2 μg/cm^2, dead or moribund fleas after 48 h) of 95%. For the same molecule, the pest or weed control at 1 µg/cm2, 1 µg/cm2 (Ctenocephalides felis [1]; dose 1 μg/cm^2, dead or moribund fleas after 48 h) was 95%, the pest or weed control at 0.0064 ppm (Ctenocephalides felis [2]; dose 0.0064 ppm in citrated cattle blood) was 95% and the pest or weed control at 0.032 ppm (Ctenocephalides felis [2]; dose 0.032 ppm in citrated cattle blood) was 95%. For the same molecule, the pest or weed control at 0.16 ppm (Ctenocephalides felis [2]; dose 0.16 ppm in citrated cattle blood) was 95%, the pest or weed control at 0.8 ppm (Ctenocephalides felis [2]; dose 0.8 ppm in citrated cattle blood) was 95% and the pest or weed control at 4 ppm (Ctenocephalides felis [2]; dose 4 ppm in citrated cattle blood) was 95%. For the same molecule, the pest or weed control at 0.2 µg/cm2, 0.2 µg/cm2 (Dermacentor variabilis [3]; dose 0.2 μg/cm^2, 48 h) was 90%, the pest or weed control at 1 µg/cm2, 1 µg/cm2 (Dermacentor variabilis [3]; dose 1 μg/cm^2, 48 h) was 90% and the inhibition in vivo at 10 mg/kg (Dermacentor variabilis [4]; SD 2, read-out: Geometric mean percent reduction in live tick (Dermacentor variabilis) counts compared to untreated control rats) was 100%. It also gave an inhibition in vivo at 10 mg/kg (Dermacentor variabilis [4]; SD 9, read-out: Geometric mean percent reduction in live tick (Dermacentor variabilis) counts compared to untreated control rats) of 99%, an inhibition in vivo at 10 mg/kg (Dermacentor variabilis [4]; SD 16, read-out: Geometric mean percent reduction in live tick (Dermacentor variabilis) counts compared to untreated control rats) of 86% and an inhibition in vivo at 10 mg/kg (Dermacentor variabilis [4]; SD 23, read-out: Geometric mean percent reduction in live tick (Dermacentor variabilis) counts compared to untreated control rats) of 46%. The inhibition in vivo at 10 mg/kg (Dermacentor variabilis [4]; SD 30, read-out: Geometric mean percent reduction in live tick (Dermacentor variabilis) counts compared to untreated control rats) was 17% and the pest or weed control at 100 ppm (Spodoptera litura) was no less than 70%.
